Results taken from patent US20100183600A1, “RAF Inhibitors and Their Uses” (ARQULE, INC., priority 2008, published 2010).
Like-named read-outs stand apart in the source and are kept apart here.

How the values were obtained:
p-Erk (A375) = experiment: Cell-based phosphorylation assay with electroblotting readout; parameters: species or system human; settings: A375 cells; for EC50: Homo sapiens, A-375, 1 hr
Source text: Compounds of the present invention have been screened for their ability to inhibit all isoforms, both wild-type and mutant of RAF kinases (A-RAF, B-RAF and C-RAF) in general, and the mutant B-RAF (V600E) in particular in human cancer cells. A375 is a human melanoma cell line that harbors the most common B-RAF mutation-V600E found in human cancers. The ability of compounds to inhibit RAF kinases in this assay is correlated with the reduction of MEK and ERK phosphorylation, and is therefore a direct indicator of potential in vivo therapeutic activity.
Materials: A375 cells from ATCC were maintained at 37° C., 5% CO2 in DMEM media supplemented with 10% fetal bovine serum, penicillin/streptomycin and fungizone. (Invitrogen)
Methods: Test compounds were dissolved and diluted 1:1000 in DMSO. A375 cells were seeded in six-well tissue culture plates at 5-8×10^5 per well and cultured at 37° C. for 24 h. Cells were incubated with compounds for one hour before being lysed in EPage™ loading buffer (Invitrogen). Lysates were electrophoresed on 8% EPage™ gels and transferred to polyvinylidene difluoride membranes. After incubations with primary and secondary antibodies, the immunostained proteins were detected and quantitated by an Odyssey infrared imager (LI-COR). Analysis was performed by non-linear regression to generate a dose response curve. The calculated IC50 value was the concentration of the test compound that causes a 50% decrease in phospho-MEK and phospho-ERK levels. The primary antibodies used were anti-MEK (Stressgen), anti-ERK (BD Biosciences), anti-phospho-ERK and anti-phospho-MEK (Cell Signaling). The secondary antibodies used were IRDYE800 anti-rabbit, IRDYE 800 anti-mouse (Rockland), AlexaFluor680 anti-mouse and AlexaFluoro680 anti-rabbit (Invitrogen).
A375 cells were treated with 0, 12, 37, 111, 333 and 1000 nM of indicated compounds for 1 hr. The levels of Phospho-ERK and total-ERK were accessed by immunoblotting.

mutant B-RAF = biological target: T1, mutant B-RAF (Homo sapiens, UniProt P15056, V600E); experiment: Measurement of RAF activity (MEK-1 phosphorylation); assay type: biochemical; settings: for increase in IC50 relative to compound 14: mutant B-RAF
T1 construct: purchased Upstate (Charlottesville, Va.)
Description: Materials: The RAF kinases and the anti-phospho MEK1/2 antibody were from Upstate (Charlottesville, Va.). The RAF substrate used was full length N-terminal GST-MEK-1, which was expressed in E. coli and purified in-house by HPLC. All proteins were aliquoted and stored at −80° C. Superblock™ in phosphate buffered saline (PBS) blocking reagent was form Pierce (cat. #37515). ATP was from Roche (cat. # 19035722). Alkaline Phosphatase-tagged goat anti-rabbit antibody was from Pierce (cat. # 31340).
Methods: All RAF biochemical assays were performed using an assay buffer containing 20 mM MOPS, 5 mM EGTA, 37.5 mM MgCl2, 1 mM DTT and 50 μM ATP. There was 6.25 ng/well mutant B-RAF and 7.5 ng/well MEK-1 in the final assay conditions. Compounds were serially diluted in assay buffer containing 1% DMSO and 20 μl of test compound at a concentration 3-fold more than the final concentration, and were added to a polypropylene V-well reaction plate. Vehicle control wells received buffer only with DMSO at equivalent concentrations to the test wells. […] These reaction plates were incubated at room temperature for 30 minutes. Capture of MEK-1 was initiated by transferring 50 μl of the reaction mixture to a Nunc Maxisorp™ microplate that is designed for non-specific protein capture. After 30 minute capture of MEK-1 at room temperature, this plate was washed with TBST (6×200 μL/well) to fully terminate the reaction. The plate was then blocked for 1 hour by the addition of 100 μl/well of Superblock™ in phosphate buffered saline (PBS) blocking reagent. Plate was again washed with TBST (6 times with 200 μl/well), followed by the addition of 70 μl/well of Upstate anti-phospho MEK ½ diluted 1:1000 in Pierce Superblock (PBS). After a 60 minute incubation, this plate was washed with TBST (6 times with 200 μl/well), and 70 μl of the secondary antibody (Pierce Alkaline Phosphatase tagged goat anti-rabbit) prepared at 1:4000 in Superblock, were added. After a 45 minute incubation at room temperature, the wells of the microplate were washed with TBST (6 times with 200 μl/well), and thereafter 100 μl/well of Attophos™ fluorescent alkaline phosphatase substrate was added according to the manufacturer's instructions (JBL Scientific). Fluorescence was read on a Perkin Elmer Envision multilabel reader, using the following filters: Excitation Filter: CFP430 nM, Emission Filter: Emission Filter 579 nM.

[1] = 50 μM ATP, MEK-1 substrate, read-out: Mut-B-Raf IC50

T1 sequence (P15056 whole entry V600E): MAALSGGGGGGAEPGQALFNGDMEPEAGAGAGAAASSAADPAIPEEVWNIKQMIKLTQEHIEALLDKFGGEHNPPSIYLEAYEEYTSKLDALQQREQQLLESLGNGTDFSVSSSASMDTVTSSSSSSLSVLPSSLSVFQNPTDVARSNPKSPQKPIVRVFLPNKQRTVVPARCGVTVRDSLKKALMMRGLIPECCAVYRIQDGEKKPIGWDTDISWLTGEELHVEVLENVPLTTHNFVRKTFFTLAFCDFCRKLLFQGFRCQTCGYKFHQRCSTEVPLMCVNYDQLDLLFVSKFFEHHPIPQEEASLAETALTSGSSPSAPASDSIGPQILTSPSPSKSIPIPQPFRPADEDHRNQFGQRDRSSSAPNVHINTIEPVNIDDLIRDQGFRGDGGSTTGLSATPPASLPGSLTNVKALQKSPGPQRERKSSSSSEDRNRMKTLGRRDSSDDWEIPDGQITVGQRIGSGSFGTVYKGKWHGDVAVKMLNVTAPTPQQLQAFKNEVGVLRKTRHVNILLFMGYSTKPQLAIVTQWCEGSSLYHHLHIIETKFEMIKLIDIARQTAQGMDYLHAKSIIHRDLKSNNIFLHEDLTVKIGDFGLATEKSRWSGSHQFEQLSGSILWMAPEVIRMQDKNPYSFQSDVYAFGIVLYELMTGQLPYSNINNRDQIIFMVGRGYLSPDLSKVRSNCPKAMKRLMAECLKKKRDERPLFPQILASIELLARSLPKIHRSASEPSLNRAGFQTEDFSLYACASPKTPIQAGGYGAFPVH

Row | Compound | EC50 (p-Erk (A375)) [nM] | IC50 (mutant B-RAF; [1]) [nM] | IC50 (mutant B-RAF) [nM] | deviation in EC50 (cell-based ERK inhibition) relative to compound 14 (p-Erk (A375)) | increase in IC50 relative to compound 14 (mutant B-RAF) [fold]
1 | O=S(=O)(c1ccc(Cl)cc1)N1CCC[C@@H](Nc2nccc(-c3c(-c4cccc(O)c4)nc4sccn34)n2)C1 [Compound 1, (R)-3-(5-(2-(1-(4-chlorophenylsulfonyl)piperidin-3-ylamino)pyrimidin-4-yl)imidazo[2,1-b]thiazol-6-yl)phenol] | 11 | 6 |  |  | 
2 | O=P(O)(O)Oc1cccc(-c2nc3sccn3c2-c2ccnc(N[C@@H]3CCCN(S(=O)(=O)c4ccc(Cl)cc4)C3)n2)c1 [Compound 2, (R)-3-(5-(2-(1-(4-chlorophenylsulfonyl)piperidin-3-ylamino)pyrimidin-4-yl)imidazo[2,1-b]thiazol-6-yl)phenyl dihydrogen phosphate] | 260 |  | 1900 |  | 
3 | O=P(O)(O)OCOc1cccc(-c2nc3sccn3c2-c2ccnc(N[C@@H]3CCCN(S(=O)(=O)c4ccc(Cl)cc4)C3)n2)c1 [Compound 3, (R)-(3-(5-(2-(1-(4-chlorophenylsulfonyl)piperidin-3-ylamino)pyrimidin-4-yl)imidazo[2,1-b]thiazol-6-yl)phenoxy)methyl dihydrogen phosphate] | 71 | 375 |  |  | 
4 | O=P(O)(O)Oc1cccc(-c2nc3occn3c2-c2ccnc(N[C@@H]3CCCN(S(=O)(=O)c4ccc(Cl)cc4)C3)n2)c1 [Compound 5, (R)-3-(5-(2-(1-(4-chlorophenylsulfonyl)piperidin-3-ylamino)pyrimidin-4-yl)imidazo[2,1-b]oxazol-6-yl)phenyl dihydrogen phosphate] | 127 |  | 1900 |  | 
5 | O=P(O)(O)OCOc1cccc(-c2nc3occn3c2-c2ccnc(N[C@@H]3CCCN(S(=O)(=O)c4ccc(Cl)cc4)C3)n2)c1 [Compound 6, (R)-(3-(5-(2-(1-(4-chlorophenylsulfonyl)piperidin-3-ylamino)pyrimidin-4-yl)imidazo[2,1-b]oxazol-6-yl)phenoxy)methyl dihydrogen phosphate] | 12 | 1410 |  |  | 
6 | O=P(O)(O)OCOc1cccc(-c2nc3sccn3c2-c2ccnc(NC3CCN(S(=O)(=O)c4ccc(Cl)cc4)CC3)n2)c1 [Compound 8, (3-(5-(2-(1-(4-chlorophenylsulfonyl)piperidin-4-ylamino)pyrimidin-4-yl)imidazo[2,1-b]thiazol-6-yl)phenoxy)methyl dihydrogen phosphate] | 938 | 405 |  |  | 
7 | O=P(O)(O)Oc1cccc(-c2nc3occn3c2-c2ccnc(NC3CCN(S(=O)(=O)c4ccc(F)cc4)CC3)n2)c1 [Compound 10, 3-(5-(2-(1-(4-fluorophenylsulfonyl)piperidin-4-ylamino)pyrimidin-4-yl)imidazo[2,1-b]oxazol-6-yl)phenyl dihydrogen phosphate] | 88 |  | 1170 |  | 
8 | O=P(O)(O)Oc1cccc(-c2nc3occn3c2-c2ccnc(NC3CCN(S(=O)(=O)C4CC4)CC3)n2)c1 [Compound 12, 3-(5-(2-(1-(cyclopropylsulfonyl)piperidin-4-ylamino)pyrimidin-4-yl)imidazo[2,1-b]oxazol-6-yl)phenyl dihydrogen phosphate] | 177 |  | > 3300 |  | 
9 | O=P(O)(O)OCOc1cccc(-c2nc3occn3c2-c2ccnc(NC3CCN(S(=O)(=O)C4CC4)CC3)n2)c1 [Compound 13, (3-(5-(2-(1-(cyclopropylsulfonyl)piperidin-4-ylamino)pyrimidin-4-yl)imidazo[2,1-b]oxazol-6-yl)phenoxy)methyl dihydrogen phosphate] | 161 | > 3300 |  |  | 
10 | Cn1ccc(S(=O)(=O)N2CCC[C@@H](Nc3nccc(-c4c(-c5cccc(OP(=O)(O)O)c5)nc5sccn45)n3)C2)n1 [Compound 15, (R)-3-(5-(2-(1-(1-methyl-1H-pyrazol-3-ylsulfonyl)piperidin-3-ylamino)pyrimidin-4-yl)imidazo[2,1-b]thiazol-6-yl)phenyl dihydrogen phosphate] | 8 |  | 2410 | about 2 fold | ~400
11 | Cn1ccc(S(=O)(=O)N2CCC[C@@H](Nc3nccc(-c4c(-c5cccc(OCOP(=O)(O)O)c5)nc5sccn45)n3)C2)n1 [Compound 16, (R)-(3-(5-(2-(1-(1-methyl-1H-pyrazol-3-ylsulfonyl)piperidin-3-ylmino)pyrimidin-4-yl)imidazo[2,1-b]thiazol-6-yl)phenoxy)methyl dihydrogen phosphate] | 4 | 1160 |  | ~4 fold | ~193
12 | Cn1ccc(S(=O)(=O)N2CCC[C@@H](Nc3nccc(-c4c(-c5cccc(OP(=O)(O)O)c5)nc5occn45)n3)C2)n1 [Compound 18, (R)-3-(5-(2-(1-(1-methyl-1H-pyrazol-3-ylsulfonyl)piperidin-3-ylamino)pyrimidin-4-yl)imidazo[2,1-b]oxazol-6-yl)phenyl dihydrogen phosphate] | 87 |  | > 3300 |  | 
13 | Cn1ccc(S(=O)(=O)N2CCC(Nc3nccc(-c4c(-c5cccc(OCOP(=O)(O)O)c5)nc5occn45)n3)CC2)n1 [Compound 21, (3-(5-(2-(1-(1-methyl-1H-pyrazol-3-ylsulfonyl)piperidin-4-ylamino)pyrimidin-4-yl)imidazo[2,1-b]oxazol-6-yl)phenoxy)methyl dihydrogen phosphate] | 141 | 1160 |  |  | 
14 | Cn1ccc(S(=O)(=O)N2CCC[C@@H](Nc3nccc(-c4c(-c5ccc(F)c(OP(=O)(O)O)c5)nc5occn45)n3)C2)n1 [Compound 23, (R)-2-fluoro-5-(5-(2-(1-(1-methyl-1H-pyrazol-3-ylsulfonyl)piperidin-3-ylamino)pyrimidin-4-yl)imidazo[2,1-b]oxazol-6-yl)phenyl dihydrogen phosphate] | 9 |  | 1050 |  | 
15 | Cn1ccc(S(=O)(=O)N2CCC[C@@H](Nc3nccc(-c4c(-c5ccc(F)c(OCOP(=O)(O)O)c5)nc5occn45)n3)C2)n1 [Compound 24, (R)-(2-fluoro-5-(5-(2-(1-(1-methyl-1H-pyrazol-3-ylsulfonyl)piperidin-3-ylamino)pyrimidin-4-yl)imidazo[2,1-b]oxazol-6-yl)phenoxy)methyl dihydrogen phosphate] | 52 | 28 |  |  | 
